One compound from ChEMBL document CHEMBL1157159, “Ester derivatives of gallic acid with potential toxicity toward L1210 leukemia cells” (Bioorg Med Chem, 2008) can be followed below.

Active and inactive are the calls of the source. No cut-off for these calls is given here. Bounds are passed on as bounds.

One series relates to Vero. The series is described as follows: Cytotoxicity against african green monkey VERO cells. It is filed as cell-based. The following applies: Chlorocebus sabaeus.
The test system of series [1] is L1210. As to the kind of experiment: Decrease in mitochondrial glutathione level in mouse L1210 cells. It is filed as functional, cell-based.
Series [2] has as its system L1210. The series is described as follows: Induction of apoptosis in mouse L1210 cells assessed as internucleosomal breakdown of DNA chromatin at 100 uM. It is filed as functional, cell-based.
Series [3] in a line: Genotoxicity against african green monkey VERO cells. The settings on record: African green monkey (Chlorocebus sabaeus). Format: toxicity, cell-based.
Series [4] has as its system L1210. The series is described as follows: Cytotoxicity against mouse L1210 cells after 48 hrs by MTT assay. The settings on record: L1210, 48 h. Format: functional, cell-based. A general note: Formazan colour is commonly taken as a measure of viable cells.
The test system of series [5] is L1210. As to the kind of experiment: Decrease in cytoplasmic glutathione level in mouse L1210 cells. It is filed as functional, cell-based.
Series [6] relates to CCRF-CEM. The series is described as follows: Cytotoxicity against human CEM cells after 72 hrs by MTT assay. Format: functional, cell-based.
For series [7], the system named is L1210. The series is described as follows: Induction of apoptosis in mouse L1210 cells assessed as internucleosomal breakdown of DNA chromatin at 30 uM. It is filed as functional, cell-based.
Series [8] deals with CCRF-CEM. The series is described as follows: Induction of apoptosis in human CEM cells assessed as internucleosomal breakdown of DNA chromatin at 100 uM. Format: functional, cell-based.
The subject of series [9] is CCRF-CEM. As to the kind of experiment: Induction of apoptosis in human CEM cells assessed as internucleosomal breakdown of DNA chromatin at 30 uM. Format: functional, cell-based.
Series [10] deals with CCRF-CEM. As to the kind of experiment: Cytotoxicity against human CEM cells after 24 hrs by MTT assay. It is filed as functional, cell-based.
Series [11] relates to L1210. As to the kind of experiment: Cytotoxicity against mouse L1210 cells after 72 hrs by MTT assay. Format: functional, cell-based. The following applies: L1210, 72 h.
Series [12] deals with L1210. As to the kind of experiment: Decrease in cytoplasmic glutathione level in mouse L1210 cells at 100 uM. Format: functional. The arrangement: scale not given: the % may be the effect or the level left.

In the case of `O=C(O)c1cc(O)c(O)c(O)c1` [GALLIC ACID], the IC50 in the series with Vero is greater than 1 µM; in series [3], greater than 299 µM; with L1210 [4] it was greater than 50 µM; in the series on CCRF-CEM [6], greater than 50 µM; in the series on CCRF-CEM [10], greater than 50 µM; in the series on L1210 [11], 50 µM. The result in the series with L1210 [1], with L1210 [2], in the series with L1210 [5], in the series on L1210 [7], with CCRF-CEM [8] and with CCRF-CEM [9] was Active. This compound also yielded an Activity in the series with L1210 [12] of 75%.

In general, IC50 refers to the concentration that inhibits the measured activity by half.
